{
  "source": "PubChem BioAssay (NCI)",
  "assay_in_all_cases": "NCI-60 cell line screen, 48 h",
  "key": {"[1]": {"tested_on": "786-0 renal"}, "[2]": {"tested_on": "A498 renal"}, "[3]": {"tested_on": "A549 NSCLC"}, "[4]": {"tested_on": "ACHN renal"}, "[5]": {"tested_on": "BT-549 breast"}, "[6]": {"tested_on": "CAKI-1 renal"}, "[7]": {"tested_on": "CCRF-CEM leukemia"}, "[8]": {"tested_on": "COLO 205 colon"}, "[9]": {"tested_on": "DU-145 prostate"}, "[10]": {"tested_on": "EKVX NSCLC"}, "[11]": {"tested_on": "HCC-2998 colon"}, "[12]": {"tested_on": "HCT-116 colon"}, "[13]": {"tested_on": "HCT-15 colon"}, "[14]": {"tested_on": "HOP-62 NSCLC"}, "[15]": {"tested_on": "HOP-92 NSCLC"}, "[16]": {"tested_on": "HT29 colon"}, "[17]": {"tested_on": "IGROV1 ovarian"}, "[18]": {"tested_on": "K-562 leukemia"}, "[19]": {"tested_on": "KM12 colon"}, "[20]": {"tested_on": "LOX IMVI melanoma"}, "[21]": {"tested_on": "M14 melanoma"}, "[22]": {"tested_on": "MALME-3M melanoma"}, "[23]": {"tested_on": "MCF7 breast"}, "[24]": {"tested_on": "MDA-MB-231 breast"}, "[25]": {"tested_on": "MDA-MB-435"}, "[26]": {"tested_on": "MOLT-4 leukemia"}, "[27]": {"tested_on": "NCI-H226 lung"}, "[28]": {"tested_on": "NCI-H23 lung"}, "[29]": {"tested_on": "NCI-H460 lung"}, "[30]": {"tested_on": "NCI-H522 lung"}, "[31]": {"tested_on": "NCI/ADR-RES ovarian"}, "[32]": {"tested_on": "OVCAR-3 ovarian"}, "[33]": {"tested_on": "OVCAR-4 ovarian"}, "[34]": {"tested_on": "OVCAR-5 ovarian"}, "[35]": {"tested_on": "OVCAR-8 ovarian"}, "[36]": {"tested_on": "PC-3 prostate"}, "[37]": {"tested_on": "RXF 393 renal"}, "[38]": {"tested_on": "SF-268 CNS"}, "[39]": {"tested_on": "SF-295 CNS"}, "[40]": {"tested_on": "SF-539 CNS"}, "[41]": {"tested_on": "SK-MEL-2 melanoma"}, "[42]": {"tested_on": "SK-MEL-28 melanoma"}, "[43]": {"tested_on": "SK-MEL-5 melanoma"}, "[44]": {"tested_on": "SK-OV-3 ovarian"}, "[45]": {"tested_on": "SN12C renal"}, "[46]": {"tested_on": "SNB-19 CNS"}, "[47]": {"tested_on": "SNB-75 CNS"}, "[48]": {"tested_on": "SR leukemia"}, "[49]": {"tested_on": "SW-620 colon"}, "[50]": {"tested_on": "T-47D breast"}, "[51]": {"tested_on": "TK-10 renal"}, "[52]": {"tested_on": "U251 CNS"}, "[53]": {"tested_on": "UACC-257 melanoma"}, "[54]": {"tested_on": "UACC-62 melanoma"}, "[55]": {"tested_on": "UO-31 renal"}},
  "note": "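Dose response: 5 concentrations. Exposure: 48 h. Format: 96-well plates. Endpoint: linear interpolation; highest concentration if not reached. The concentration for 50% growth inhibition is given as GI50. TGI: total growth inhibition.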",
  "data": [
    {"smiles": "Cc1c(O)c(OC2OC(CO)C(O)C(O)C2O)cc2c1CC[C@@H]1C2(C)C(=O)C[C@]2(C)[C@@H]([C@@](C)(O)C3CCC(C)(C)O3)[C@H](O)C[C@@]12C", "note": "(stereo not given in full)", "values": [
      {"measurement": "TGI", "setting": "[1]", "result": "> 100000", "unit": "nM"},
      {"measurement": "TGI", "setting": "[2]", "result": "> 100", "unit": "µM"},
      {"measurement": "TGI", "setting": "[3]", "result": "> 100", "unit": "µM"},
      {"measurement": "TGI", "setting": "[4]", "result": "> 100000", "unit": "nM"},
      {"measurement": "TGI", "setting": "[5]", "result": "> 100", "unit": "µM"},
      {"measurement": "TGI", "setting": "[6]", "result": "> 100", "unit": "µM"},
      {"measurement": "TGI", "setting": "[7]", "result": "> 100", "unit": "µM"},
      {"measurement": "TGI", "setting": "[8]", "result": "> 100", "unit": "µM"},
      {"measurement": "TGI", "setting": "[9]", "result": "> 100000", "unit": "nM"},
      {"measurement": "TGI", "setting": "[10]", "result": "> 100", "unit": "µM"},
      {"measurement": "TGI", "setting": "[11]", "result": "> 100000", "unit": "nM"},
      {"measurement": "TGI", "setting": "[12]", "result": "> 100000", "unit": "nM"},
      {"measurement": "TGI", "setting": "[13]", "result": "> 100000", "unit": "nM"},
      {"measurement": "TGI", "setting": "[14]", "result": "> 100000", "unit": "nM"},
      {"measurement": "TGI", "setting": "[15]", "result": "> 100", "unit": "µM"},
      {"measurement": "TGI", "setting": "[16]", "result": "> 100", "unit": "µM"},
      {"measurement": "TGI", "setting": "[17]", "result": "> 100", "unit": "µM"},
      {"measurement": "TGI", "setting": "[18]", "result": "> 100", "unit": "µM"},
      {"measurement": "TGI", "setting": "[19]", "result": "> 100", "unit": "µM"},
      {"measurement": "TGI", "setting": "[20]", "result": "> 100", "unit": "µM"},
      {"measurement": "TGI", "setting": "[21]", "result": "> 100000", "unit": "nM"},
      {"measurement": "TGI", "setting": "[22]", "result": "> 100", "unit": "µM"},
      {"measurement": "TGI", "setting": "[23]", "result": "> 100", "unit": "µM"},
      {"measurement": "TGI", "setting": "[24]", "result": "> 100000", "unit": "nM"},
      {"measurement": "TGI", "setting": "[25]", "result": "> 100", "unit": "µM"},
      {"measurement": "TGI", "setting": "[26]", "result": "> 100", "unit": "µM"},
      {"measurement": "TGI", "setting": "[27]", "result": "> 100", "unit": "µM"},
      {"measurement": "TGI", "setting": "[28]", "result": "> 100000", "unit": "nM"},
      {"measurement": "TGI", "setting": "[29]", "result": "> 100", "unit": "µM"},
      {"measurement": "TGI", "setting": "[30]", "result": "> 100", "unit": "µM"},
      {"measurement": "TGI", "setting": "[31]", "result": "> 100", "unit": "µM"},
      {"measurement": "TGI", "setting": "[32]", "result": "> 100", "unit": "µM"},
      {"measurement": "TGI", "setting": "[33]", "result": "> 100", "unit": "µM"},
      {"measurement": "TGI", "setting": "[34]", "result": "> 100000", "unit": "nM"},
      {"measurement": "TGI", "setting": "[35]", "result": "> 100", "unit": "µM"},
      {"measurement": "TGI", "setting": "[36]", "result": "> 100", "unit": "µM"},
      {"measurement": "TGI", "setting": "[37]", "result": "> 100", "unit": "µM"},
      {"measurement": "TGI", "setting": "[38]", "result": "> 100", "unit": "µM"},
      {"measurement": "TGI", "setting": "[39]", "result": "> 100", "unit": "µM"},
      {"measurement": "TGI", "setting": "[40]", "result": "> 100", "unit": "µM"},
      {"measurement": "TGI", "setting": "[41]", "result": "> 100", "unit": "µM"},
      {"measurement": "TGI", "setting": "[42]", "result": "> 100", "unit": "µM"},
      {"measurement": "TGI", "setting": "[43]", "result": "> 100000", "unit": "nM"},
      {"measurement": "TGI", "setting": "[44]", "result": "> 100000", "unit": "nM"},
      {"measurement": "TGI", "setting": "[45]", "result": "> 100", "unit": "µM"},
      {"measurement": "TGI", "setting": "[46]", "result": "> 100", "unit": "µM"},
      {"measurement": "TGI", "setting": "[47]", "result": "> 100", "unit": "µM"},
      {"measurement": "TGI", "setting": "[48]", "result": "> 100", "unit": "µM"},
      {"measurement": "TGI", "setting": "[49]", "result": "> 100000", "unit": "nM"},
      {"measurement": "TGI", "setting": "[50]", "result": "> 100", "unit": "µM"},
      {"measurement": "TGI", "setting": "[51]", "result": "> 100", "unit": "µM"},
      {"measurement": "TGI", "setting": "[52]", "result": "> 100", "unit": "µM"},
      {"measurement": "TGI", "setting": "[53]", "result": "> 100", "unit": "µM"},
      {"measurement": "TGI", "setting": "[54]", "result": "> 100", "unit": "µM"},
      {"measurement": "TGI", "setting": "[55]", "result": "> 100", "unit": "µM"}
    ]},
    {"smiles": "CSc1ccc2c(c1)C(=O)c1c-2n(CCCN)c(=O)c2cc([N+](=O)[O-])ccc12", "values": [
      {"measurement": "GI50", "setting": "[1]", "result": 12.7, "unit": "nM"},
      {"measurement": "TGI", "setting": "[1]", "result": 108, "unit": "nM"},
      {"measurement": "GI50", "setting": "[4]", "result": "< 10", "unit": "nM"},
      {"measurement": "TGI", "setting": "[4]", "result": 327, "unit": "nM"},
      {"measurement": "GI50", "setting": "[9]", "result": "< 10", "unit": "nM"},
      {"measurement": "TGI", "setting": "[9]", "result": 160, "unit": "nM"},
      {"measurement": "GI50", "setting": "[11]", "result": 104, "unit": "nM"},
      {"measurement": "TGI", "setting": "[11]", "result": 581, "unit": "nM"},
      {"measurement": "GI50", "setting": "[12]", "result": "< 10", "unit": "nM"},
      {"measurement": "TGI", "setting": "[12]", "result": 173, "unit": "nM"},
      {"measurement": "GI50", "setting": "[13]", "result": 96.2, "unit": "nM"},
      {"measurement": "TGI", "setting": "[13]", "result": 249, "unit": "nM"},
      {"measurement": "GI50", "setting": "[14]", "result": "< 10", "unit": "nM"},
      {"measurement": "TGI", "setting": "[14]", "result": 147, "unit": "nM"},
      {"measurement": "GI50", "setting": "[21]", "result": 24.9, "unit": "nM"},
      {"measurement": "TGI", "setting": "[21]", "result": 1070, "unit": "nM"},
      {"measurement": "GI50", "setting": "[24]", "result": 215, "unit": "nM"},
      {"measurement": "TGI", "setting": "[24]", "result": 422, "unit": "nM"},
      {"measurement": "GI50", "setting": "[28]", "result": "< 10", "unit": "nM"},
      {"measurement": "TGI", "setting": "[28]", "result": 158, "unit": "nM"},
      {"measurement": "GI50", "setting": "[34]", "result": 123, "unit": "nM"},
      {"measurement": "TGI", "setting": "[34]", "result": 872, "unit": "nM"},
      {"measurement": "GI50", "setting": "[37]", "result": 1950, "unit": "nM"},
      {"measurement": "TGI", "setting": "[37]", "result": "> 100", "unit": "µM"},
      {"measurement": "GI50", "setting": "[43]", "result": 127, "unit": "nM"},
      {"measurement": "TGI", "setting": "[43]", "result": 1630, "unit": "nM"},
      {"measurement": "GI50", "setting": "[44]", "result": "< 11.7", "unit": "nM"},
      {"measurement": "TGI", "setting": "[44]", "result": 1370, "unit": "nM"},
      {"measurement": "GI50", "setting": "[49]", "result": "< 10", "unit": "nM"},
      {"measurement": "TGI", "setting": "[49]", "result": 209, "unit": "nM"}
    ]}
  ]
}
